Test results reported in US20170258786A1, “RBP4 ANTAGONISTS FOR THE TREATMENT OF AGE-RELATED MACULAR DEGENERATION AND STARGARDT DISEASE” (The Trustees of Columbia University in the City of New York, priority 2013, published 2017).

Legend:
RBP4-TTR interaction = biological target: T1, RBP4-TTR interaction (Homo sapiens, UniProt P02753); test: TR-FRET/HTRF assay for antagonists of retinol-induced RBP4-TTR interaction (Example 2, agonist and antagonist mode); type: biochemical; settings: agonist mode, dose titration without retinol
T1 construct: host or cells: E. coli
Source text: TR-FRET (Time-Resolved Fluorescence Resonance Energy Transfer) is an assay format that can be used in characterization of compounds affecting protein-protein interactions (31-33). […] In the presence of retinol, RBP4-TTR interaction induces FRET that can be registered as increased ratio of […] fluorescence signals. Binding of a desired RBP4 antagonist displaces retinol and induces hindrance for RBP4-TTR interaction resulting in the decreased FRET signal (FIG. 7).
The assay was developed using E. coli-expressed MBP-tagged RBP4 and commercially available TTR labeled directly with Eu3+ cryptate. In addition to MBP-RBP4 and Eu3+ (K)-TTR, a detector reagent anti-MBP-d2 was present in the mix. The assay was first optimized in the agonist mode; sensitivity and dynamic range of the assay was […] in respect to RBP4, TTR and detection reagent concentrations.

serum RBP4 = biological target: T2, serum RBP4 (Mus musculus, UniProt Q00724); test: Serum RBP4 measured by ELISA in Abca4-/- mice; type: in vivo
T2 construct: There was approximately a 70% reduction in the serum RBP4 level in treated animals; from tissue; host or cells: mouse serum (Abca4-/- and wild-type, 129/SV x C57BL/6J)
Procedure: The Abca4−/− mouse model manifests accelerated accumulation of lipofuscin in the RPE and is considered a pre-clinical efficacy model for a drug reducing lipofuscin accumulation.
(§1) Ten week-old Abca4 null mutant mice (129/SV×C57BL/6J) bred as previously described were used in the study. Abca4−/− (knockout) and Abca4+/+ (wild-type) mice were raised under 12 h on-off cyclic lighting with an in-cage illuminance of 30-50 lux. For long-term oral dosing A1120 was formulated into Purina 5035 rodent chow at Research Diets, Inc. (New Brunswick, N.J.) to ensure consistent 30 mg/kg daily oral dosing. Animals were administered the A1120-containing chow for 6 weeks.
Blood samples were collected from a tail vein at days 0, 21 and 42 of the A1120 dosing. Whole blood was drawn into a centrifuge tube and was let clot at room temperature for 30 min followed by centrifugation at 2,000×g for 15 minutes at +4′C to collect serum. Serum RBP4 was measured using the RBP4 (mouse/rat) dual ELISA kit (Enzo Life Sciences) following the manufacturer's instructions.

[1] = test system: lipofuscin bisretinoids (A2E, A2-DHP-PE, atRAL di-PE); test: Lipofuscin bisretinoid levels in eyecups of Abca4-/- mice by HPLC; type: in vivo, mouse; settings: Example 3, treated mice, 30 mg/kg oral
Source text: The Abca4−/− mouse model manifests accelerated accumulation of lipofuscin in the RPE and is considered a pre-clinical efficacy model for a drug reducing lipofuscin accumulation. […] There was approximately a 70% reduction in the serum RBP4 level in treated animals (FIG. 11). Additionally, it was discovered that that the levels of A2E/isoA2E and other bisretinoids were reduced by approximately 50% in treated mice (FIG. 12).
Abca4/Abcr null mutant mice (albino) homozygous for Rpe65-Leu450 are bred genotyped and housed. […] An Alliance system (Waters, Corp, Milford, Mass.) equipped with 2695 Separation Module, 2996 Photodiode Array Detector, a 2475 Multi λ Fluorescence Detector and operating with Empower® software is used for HPLC analysis. […] HPLC quantification is carried out using the Empower® software to determine peak areas. […] Molar quantity per murine eye is determined using calibration curves constructed from known concentrations of purified external standards and by normalizing to the ratio of the HPLC injection volume (10 μL) versus total extract volume. […]
Following euthanasia, posterior eye cups were pooled and homogenized in PBS using a tissue grinder. […] Levels of bisretinoid were determined by reference to external standards of HPLC-purified compound.

ERG b-wave = ERG b-wave after photobleaching; settings: in vivo
[2] = Signs of toxicity during 6 week chronic dosing of Abca4-/- mice; type: in vivo; settings: 6 week-long chronic dosing, 30 mg/kg
Procedure: as §1
Administration of A1120 reduces the production of A2E, A2-DHP-PE, and atRAL di-PE in A1120-treated Abca4−/− mice in comparison to the vehicle-treated Abca4−/− animals by approximately 50%.

insulin sensitivity = settings: reference 12; cited from earlier work
A2E production = settings: animal model of excessive bisretinoid accumulation, reference 11; cited from earlier work
[3] = Abca4-/- mice, 30 mg/kg daily oral in chow

| Compound | Induction of RBP4-TTR interaction (RBP4-TTR interaction) | Serum RBP4 reduction at Week 3 (Day 21) compared with Day 0 (serum RBP4; [3]) [%] | Serum RBP4 reduction at Week 6 (Day 42) compared with Day 0 (serum RBP4; [3]) [%] | Reduction in serum RBP4 level (serum RBP4; orally dosed for 3 weeks at 30 mg/kg, treated animals) [%] | Levels of A2-DHP-PE and atRAL di-PE [1] | Reduction of levels of A2E/isoA2E and other bisretinoids [1] | Effect on ERG b-wave after photobleaching (ERG b-wave) | Signs of compound toxicity such as weight loss or reduction in food consumption [2] | Insulin sensitivity in mouse diabetes models (insulin sensitivity) | A2E production in Abca4-/- mice (A2E production) |
| --- | --- | --- | --- | --- | --- | --- | --- | --- | --- | --- |
| O=C(O)c1ccccc1NC(=O)N1CCC(c2ccccc2C(F)(F)F)CC1 [Compound 1, 2(4-(2-(trifluoromethyl)phenyl)piperidine-1-carboxamido)benzoic acid] | did not induce RBP4-TTR interaction | 64 | 75 | ~70 | reduced | approximately 50% | does not reduce ERG b-wave | did not note any obvious signs of compound toxicity | did not improve insulin sensitivity |  |
| CC1=C(/C=C/C(C)=C/C=C/C(C)=C/C(=O)Nc2ccc(O)cc2)C(C)(C)CCC1 [fenretinide, N-(4-hydroxy-phenyl)retinamide] | did not induce RBP4-TTR interaction |  |  |  |  |  |  |  |  | reduced A2E production |
